Experimental data as given in publication doi:10.1101/2023.11.24.568596v1 (biorxiv, 2023).

What was measured:
Details in all cases: binder
DCAMKL1 = target: T1, DCAMKL1 (Homo sapiens, UniProt O15075)
T1 sequence (O15075 1-740): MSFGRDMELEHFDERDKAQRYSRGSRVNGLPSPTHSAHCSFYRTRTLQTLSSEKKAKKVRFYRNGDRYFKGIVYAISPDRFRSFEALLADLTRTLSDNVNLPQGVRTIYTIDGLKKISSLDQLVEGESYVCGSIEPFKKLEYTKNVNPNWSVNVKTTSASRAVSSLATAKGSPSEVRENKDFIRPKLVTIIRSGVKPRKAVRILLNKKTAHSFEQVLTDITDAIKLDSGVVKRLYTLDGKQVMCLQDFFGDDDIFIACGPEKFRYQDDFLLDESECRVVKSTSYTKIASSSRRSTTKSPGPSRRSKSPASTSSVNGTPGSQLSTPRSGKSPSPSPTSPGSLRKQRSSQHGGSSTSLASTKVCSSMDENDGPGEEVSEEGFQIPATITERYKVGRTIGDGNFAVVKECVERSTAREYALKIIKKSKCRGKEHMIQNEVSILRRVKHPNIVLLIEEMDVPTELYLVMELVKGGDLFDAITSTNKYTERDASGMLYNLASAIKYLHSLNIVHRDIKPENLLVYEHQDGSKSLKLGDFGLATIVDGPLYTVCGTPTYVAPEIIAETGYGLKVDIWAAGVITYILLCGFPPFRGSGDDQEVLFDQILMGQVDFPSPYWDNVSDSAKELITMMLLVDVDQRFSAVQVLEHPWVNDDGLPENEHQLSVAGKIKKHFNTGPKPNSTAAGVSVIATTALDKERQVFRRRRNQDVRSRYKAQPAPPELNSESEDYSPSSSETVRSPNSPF

MARK4 = target: T2, MARK4 (Homo sapiens, UniProt Q96L34)
T2 sequence (Q96L34 1-752): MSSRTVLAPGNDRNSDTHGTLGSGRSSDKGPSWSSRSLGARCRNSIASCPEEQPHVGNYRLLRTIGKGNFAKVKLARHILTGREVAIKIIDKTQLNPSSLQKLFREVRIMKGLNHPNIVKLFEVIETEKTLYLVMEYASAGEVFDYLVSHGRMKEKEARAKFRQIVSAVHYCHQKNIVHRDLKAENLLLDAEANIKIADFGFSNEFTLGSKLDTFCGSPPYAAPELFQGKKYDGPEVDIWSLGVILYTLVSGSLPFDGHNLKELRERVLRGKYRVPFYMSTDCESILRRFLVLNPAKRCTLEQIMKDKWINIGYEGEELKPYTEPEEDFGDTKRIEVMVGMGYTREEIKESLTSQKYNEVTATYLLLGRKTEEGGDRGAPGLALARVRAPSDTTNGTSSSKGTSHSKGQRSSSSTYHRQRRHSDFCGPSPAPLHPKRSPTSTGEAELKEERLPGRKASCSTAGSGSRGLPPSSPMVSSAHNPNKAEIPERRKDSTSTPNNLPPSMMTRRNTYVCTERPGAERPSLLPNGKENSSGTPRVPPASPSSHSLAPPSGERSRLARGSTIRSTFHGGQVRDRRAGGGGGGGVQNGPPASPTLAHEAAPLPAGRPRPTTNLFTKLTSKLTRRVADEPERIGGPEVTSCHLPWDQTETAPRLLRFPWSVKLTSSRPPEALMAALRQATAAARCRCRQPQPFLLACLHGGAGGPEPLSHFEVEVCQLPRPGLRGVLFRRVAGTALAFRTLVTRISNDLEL

NEK7 = NEK7 (Homo sapiens, UniProt Q8TDX7)
JNK1 = JNK1 (Homo sapiens, UniProt P45983)
NDR2 = NDR2 (Homo sapiens, UniProt Q9Y2H1)
GSK3B = GSK3B (Homo sapiens, UniProt P49841)
BIKE = BIKE (Homo sapiens, UniProt Q9NSY1)
FGFR2 = FGFR2 (Homo sapiens, UniProt P21802)
p38a = p38a (Homo sapiens, UniProt Q16539)
FLT1 = FLT1 (Homo sapiens, UniProt P17948)
MELK = MELK (Homo sapiens, UniProt Q14680)
CK2a1 = CK2a1 (Homo sapiens, UniProt P68400)
BRD4 = BRD4 (Homo sapiens, UniProt O60885)

GSK3B, sequence (P49841 whole entry): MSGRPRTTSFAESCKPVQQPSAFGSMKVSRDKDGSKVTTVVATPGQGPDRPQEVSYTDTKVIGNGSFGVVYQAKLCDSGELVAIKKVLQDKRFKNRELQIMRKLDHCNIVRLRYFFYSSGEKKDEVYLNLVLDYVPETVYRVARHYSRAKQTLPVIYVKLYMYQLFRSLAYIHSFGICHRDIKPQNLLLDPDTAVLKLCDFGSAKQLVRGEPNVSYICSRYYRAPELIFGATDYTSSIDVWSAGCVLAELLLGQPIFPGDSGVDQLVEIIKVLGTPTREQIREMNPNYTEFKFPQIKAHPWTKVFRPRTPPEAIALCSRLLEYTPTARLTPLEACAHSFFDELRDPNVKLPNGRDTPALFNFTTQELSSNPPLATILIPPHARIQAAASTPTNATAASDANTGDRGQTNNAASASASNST
FGFR2, sequence (P21802 whole entry): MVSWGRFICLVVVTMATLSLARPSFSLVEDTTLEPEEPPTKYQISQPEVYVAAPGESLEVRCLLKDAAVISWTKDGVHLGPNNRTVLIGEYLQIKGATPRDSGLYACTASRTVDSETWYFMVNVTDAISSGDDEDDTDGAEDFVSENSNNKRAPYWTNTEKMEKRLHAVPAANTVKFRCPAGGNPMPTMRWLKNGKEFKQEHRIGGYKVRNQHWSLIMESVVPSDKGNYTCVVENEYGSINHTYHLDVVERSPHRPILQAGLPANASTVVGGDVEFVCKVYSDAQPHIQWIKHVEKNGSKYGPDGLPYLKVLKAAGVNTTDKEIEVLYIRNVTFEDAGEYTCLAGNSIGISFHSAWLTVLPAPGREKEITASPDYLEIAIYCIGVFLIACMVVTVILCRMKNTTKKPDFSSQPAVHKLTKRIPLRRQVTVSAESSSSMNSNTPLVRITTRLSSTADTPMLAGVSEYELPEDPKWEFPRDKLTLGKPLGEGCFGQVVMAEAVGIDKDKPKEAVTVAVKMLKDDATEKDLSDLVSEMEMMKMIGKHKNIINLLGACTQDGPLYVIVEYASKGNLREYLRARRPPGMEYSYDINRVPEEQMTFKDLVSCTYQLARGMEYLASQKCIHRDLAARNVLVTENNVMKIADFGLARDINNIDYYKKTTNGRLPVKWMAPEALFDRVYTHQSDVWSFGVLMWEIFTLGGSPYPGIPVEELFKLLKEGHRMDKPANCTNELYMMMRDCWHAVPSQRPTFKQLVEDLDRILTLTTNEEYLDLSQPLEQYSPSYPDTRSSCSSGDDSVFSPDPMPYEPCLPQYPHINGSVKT
FLT1, sequence (P17948 whole entry): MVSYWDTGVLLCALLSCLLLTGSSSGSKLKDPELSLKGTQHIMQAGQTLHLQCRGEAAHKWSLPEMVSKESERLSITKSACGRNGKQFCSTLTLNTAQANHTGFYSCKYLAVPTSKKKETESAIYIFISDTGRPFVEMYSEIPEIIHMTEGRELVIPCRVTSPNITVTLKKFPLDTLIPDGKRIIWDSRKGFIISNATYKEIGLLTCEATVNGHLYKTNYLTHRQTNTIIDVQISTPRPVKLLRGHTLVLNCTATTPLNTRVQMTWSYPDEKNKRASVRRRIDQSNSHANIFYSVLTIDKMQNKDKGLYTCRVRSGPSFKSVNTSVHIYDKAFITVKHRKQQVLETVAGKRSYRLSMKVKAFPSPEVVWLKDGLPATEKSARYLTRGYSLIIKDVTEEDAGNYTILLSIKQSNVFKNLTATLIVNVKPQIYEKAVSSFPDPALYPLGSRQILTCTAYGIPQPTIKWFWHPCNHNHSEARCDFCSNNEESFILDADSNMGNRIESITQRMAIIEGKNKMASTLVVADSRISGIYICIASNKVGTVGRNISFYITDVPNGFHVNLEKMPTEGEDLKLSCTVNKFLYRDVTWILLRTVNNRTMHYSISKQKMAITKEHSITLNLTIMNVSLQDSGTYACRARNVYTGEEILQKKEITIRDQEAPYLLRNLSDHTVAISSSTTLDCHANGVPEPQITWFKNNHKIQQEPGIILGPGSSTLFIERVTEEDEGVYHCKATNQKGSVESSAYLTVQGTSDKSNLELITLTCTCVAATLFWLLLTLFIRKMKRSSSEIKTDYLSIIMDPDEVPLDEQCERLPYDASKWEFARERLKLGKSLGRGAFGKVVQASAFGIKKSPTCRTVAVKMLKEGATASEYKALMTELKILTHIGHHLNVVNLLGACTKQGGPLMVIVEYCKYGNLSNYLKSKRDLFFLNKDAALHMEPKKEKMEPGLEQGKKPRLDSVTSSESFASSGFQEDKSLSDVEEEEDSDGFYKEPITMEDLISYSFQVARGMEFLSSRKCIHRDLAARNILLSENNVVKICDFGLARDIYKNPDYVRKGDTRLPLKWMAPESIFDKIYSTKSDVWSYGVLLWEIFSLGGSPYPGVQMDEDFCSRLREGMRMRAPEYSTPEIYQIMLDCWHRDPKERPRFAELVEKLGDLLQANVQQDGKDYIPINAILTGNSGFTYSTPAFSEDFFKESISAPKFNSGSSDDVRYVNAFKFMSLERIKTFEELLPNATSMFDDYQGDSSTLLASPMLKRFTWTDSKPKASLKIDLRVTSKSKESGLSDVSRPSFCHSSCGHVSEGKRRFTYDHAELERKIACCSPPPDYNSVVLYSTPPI
CK2a1, sequence (P68400 whole entry): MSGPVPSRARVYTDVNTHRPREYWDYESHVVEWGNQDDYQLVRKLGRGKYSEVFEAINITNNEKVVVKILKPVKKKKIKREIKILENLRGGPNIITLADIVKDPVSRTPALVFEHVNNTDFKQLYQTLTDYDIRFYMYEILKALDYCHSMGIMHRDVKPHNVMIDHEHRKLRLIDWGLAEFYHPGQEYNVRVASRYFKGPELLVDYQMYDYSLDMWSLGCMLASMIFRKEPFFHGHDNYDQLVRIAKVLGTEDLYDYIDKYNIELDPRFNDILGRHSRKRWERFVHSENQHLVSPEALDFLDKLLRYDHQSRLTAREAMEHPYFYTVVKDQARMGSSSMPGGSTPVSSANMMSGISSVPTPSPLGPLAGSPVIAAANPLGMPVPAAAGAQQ
NEK7, sequence (Q8TDX7 whole entry): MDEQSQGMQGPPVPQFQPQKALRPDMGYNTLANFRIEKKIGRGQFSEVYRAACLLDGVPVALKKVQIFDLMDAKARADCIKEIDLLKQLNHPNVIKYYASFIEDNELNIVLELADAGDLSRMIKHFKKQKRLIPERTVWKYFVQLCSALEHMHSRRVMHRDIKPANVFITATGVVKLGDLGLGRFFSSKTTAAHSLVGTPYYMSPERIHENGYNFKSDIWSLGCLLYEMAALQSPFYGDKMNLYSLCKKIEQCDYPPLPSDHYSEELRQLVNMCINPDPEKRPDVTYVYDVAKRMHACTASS
BIKE, sequence (Q9NSY1 whole entry): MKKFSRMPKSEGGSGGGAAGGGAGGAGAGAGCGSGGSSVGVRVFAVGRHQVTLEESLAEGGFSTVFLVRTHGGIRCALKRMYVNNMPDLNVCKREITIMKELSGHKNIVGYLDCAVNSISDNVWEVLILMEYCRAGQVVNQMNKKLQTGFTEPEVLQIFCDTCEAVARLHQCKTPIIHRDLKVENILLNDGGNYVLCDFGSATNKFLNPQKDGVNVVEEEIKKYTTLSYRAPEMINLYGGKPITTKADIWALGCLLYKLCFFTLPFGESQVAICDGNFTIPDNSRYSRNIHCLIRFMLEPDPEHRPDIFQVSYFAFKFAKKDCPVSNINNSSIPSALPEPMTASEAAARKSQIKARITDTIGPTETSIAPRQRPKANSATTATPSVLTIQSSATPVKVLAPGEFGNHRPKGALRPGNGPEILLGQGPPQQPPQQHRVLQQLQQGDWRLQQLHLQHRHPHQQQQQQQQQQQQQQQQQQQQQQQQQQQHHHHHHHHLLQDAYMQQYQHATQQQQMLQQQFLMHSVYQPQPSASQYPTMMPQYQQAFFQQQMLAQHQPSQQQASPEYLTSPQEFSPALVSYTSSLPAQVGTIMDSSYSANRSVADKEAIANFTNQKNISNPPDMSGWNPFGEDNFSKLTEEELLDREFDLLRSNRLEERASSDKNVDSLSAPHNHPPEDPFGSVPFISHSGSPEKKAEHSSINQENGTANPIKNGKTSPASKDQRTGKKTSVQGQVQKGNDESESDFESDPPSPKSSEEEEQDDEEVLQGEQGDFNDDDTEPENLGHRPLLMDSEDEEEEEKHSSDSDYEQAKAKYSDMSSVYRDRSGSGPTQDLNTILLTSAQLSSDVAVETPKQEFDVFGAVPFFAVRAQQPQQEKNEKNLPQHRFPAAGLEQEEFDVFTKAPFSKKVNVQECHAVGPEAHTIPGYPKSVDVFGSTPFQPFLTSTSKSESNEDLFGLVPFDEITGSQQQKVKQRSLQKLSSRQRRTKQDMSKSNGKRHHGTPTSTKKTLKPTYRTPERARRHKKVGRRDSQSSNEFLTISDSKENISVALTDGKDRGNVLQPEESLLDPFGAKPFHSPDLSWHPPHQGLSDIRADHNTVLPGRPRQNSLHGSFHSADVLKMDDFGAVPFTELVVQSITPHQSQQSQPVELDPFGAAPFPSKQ
NDR2, sequence (Q9Y2H1 whole entry): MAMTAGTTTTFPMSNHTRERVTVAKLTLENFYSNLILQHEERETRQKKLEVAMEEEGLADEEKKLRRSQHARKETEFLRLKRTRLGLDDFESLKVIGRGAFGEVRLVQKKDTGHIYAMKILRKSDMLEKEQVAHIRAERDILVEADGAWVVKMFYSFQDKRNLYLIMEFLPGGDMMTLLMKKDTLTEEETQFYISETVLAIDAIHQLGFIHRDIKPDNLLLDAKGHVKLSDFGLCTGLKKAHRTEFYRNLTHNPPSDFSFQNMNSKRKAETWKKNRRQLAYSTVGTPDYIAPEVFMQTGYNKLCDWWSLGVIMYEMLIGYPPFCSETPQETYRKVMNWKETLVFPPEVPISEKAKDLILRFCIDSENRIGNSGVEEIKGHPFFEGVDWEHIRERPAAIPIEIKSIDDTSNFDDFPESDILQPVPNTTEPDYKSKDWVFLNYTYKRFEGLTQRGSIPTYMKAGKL

In the case of COc1cc(N2CCN(C)CC2)ccc1Nc1ncc2cc(-c3ccc(-c4cccc(C)n4)cc3Cl)c(=O)n(CCCCN)c2n1 [compound 36, 8-(4-Aminobutyl)-6-(2-chloro-4-(6-methylpyridin-2-yl)phenyl)-2-((2-methoxy-4-(4-methylpiperazin-1-yl)phenyl)amino)pyrido[2,3-d]pyrimidin-7(8H)-one], the “dTm 36” value (DCAMKL1) is reported as 1.3 °C, the “dTm 36” value (MARK4) is reported as 7.4 °C and the “dTm 36” value (NEK7) is reported as -1.4 °C. The “dTm 36” value (JNK1) was 1.7 °C, the “dTm 36” value (NDR2) was 5.2 °C and the “dTm 36” value (GSK3B) was 0.2 °C. The “dTm 36” value (BIKE) was 1.0 °C, the “dTm 36” value (FGFR2) was 2.9 °C and the “dTm 36” value (p38a) was 3.7 °C. For the same molecule, the “dTm 36” value (FLT1) was 4.4 °C, the “dTm 36” value (MELK) was 7.4 °C and the “dTm 36” value (CK2a1) was 0.2 °C. For the same molecule, the “dTm 36” value (BRD4) was -3.5 °C.
In the case of COc1ccc(O)c(Nc2ncc3cc(-c4ccc(-c5cccc(C)n5)cc4Cl)c(=O)n(CCCCN)c3n2)c1 [compound 34, 8-(4-Aminobutyl)-6-(2-chloro-4-(6-methylpyridin-2-yl)phenyl)-2-((2-hydroxy-5-methoxy-phenyl)amino)pyrido[2,3-d]pyrimidin-7(8H)-one], the “dTm 34” value (DCAMKL1) is reported as -0.3 °C, the “dTm 34” value (MARK4) is reported as 4.6 °C and the “dTm 34” value (NEK7) is reported as -1.0 °C. The “dTm 34” value (JNK1) was 1.8 °C, the “dTm 34” value (NDR2) was 6.0 °C and the “dTm 34” value (GSK3B) was 2.0 °C. For the same molecule, the “dTm 34” value (BIKE) was 0.8 °C, the “dTm 34” value (FGFR2) was 2.0 °C and the “dTm 34” value (p38a) was 3.0 °C. The “dTm 34” value (FLT1) was 3.2 °C, the “dTm 34” value (MELK) was 3.3 °C and the “dTm 34” value (CK2a1) was 0.5 °C. For the same molecule, the “dTm 34” value (BRD4) was -1.8 °C.
For COc1cc(N2CCOCC2)ccc1Nc1ncc2cc(-c3ccc(-c4cccc(C)n4)cc3Cl)c(=O)n(CCCCN)c2n1 [compound 35, 8-(4-Aminobutyl)-6-(2-chloro-4-(6-methylpyridin-2-yl)phenyl)-2-((2-methoxy-4-morpholino-phenyl)amino)pyrido[2,3-d]pyrimidin-7(8H)-one], the “dTm 35” value (DCAMKL1) was 2.0 °C, the “dTm 35” value (MARK4) was 6.6 °C and the “dTm 35” value (NEK7) was -2.4 °C. For the same molecule, the “dTm 35” value (JNK1) was 4.7 °C, the “dTm 35” value (NDR2) was 6.5 °C and the “dTm 35” value (GSK3B) was -0.3 °C. The “dTm 35” value (BIKE) was 1.3 °C, the “dTm 35” value (FGFR2) was 2.4 °C and the “dTm 35” value (p38a) was 3.8 °C. The “dTm 35” value (FLT1) was 5.6 °C, the “dTm 35” value (MELK) was 7.5 °C and the “dTm 35” value (CK2a1) was -0.1 °C. For the same molecule, the “dTm 35” value (BRD4) was -3.6 °C.
Cc1cccc(-c2ccc(-c3cc4cnc(Nc5ccc(F)c(CO)c5)nc4n(CCCCN)c3=O)c(Cl)c2)n1 [compound 33, 8-(4-Aminobutyl)-6-(2-chloro-4-(6-methylpyridin-2-yl)phenyl)-2-((4-fluoro-3-(hydroxymethyl)phenyl)amino)pyrido[2,3-d]pyrimidin-7(8H)-one] was tested, and the “dTm 33” value (DCAMKL1) was 1.2 °C, the “dTm 33” value (MARK4) was 10.3 °C and the “dTm 33” value (NEK7) was -1.4 °C. For the same molecule, the “dTm 33” value (JNK1) was 2.2 °C, the “dTm 33” value (NDR2) was 10.4 °C and the “dTm 33” value (GSK3B) was 2.3 °C. For the same molecule, the “dTm 33” value (BIKE) was 7.2 °C, the “dTm 33” value (FGFR2) was 3.3 °C and the “dTm 33” value (p38a) was 4.7 °C. The “dTm 33” value (FLT1) was 4.9 °C, the “dTm 33” value (MELK) was 6.4 °C and the “dTm 33” value (CK2a1) was -0.4 °C. The “dTm 33” value (BRD4) was -3.7 °C.
